System: Venturia inaequalis
Assay: Efficiency against scab, grafted apple plants in pots
Type: in vivo
Set-up: Efficiency (%) Leaves treated / Efficiency (%) All leaves / Efficiency (%) New leaves: concentration or dose not given beside the values
Method: The test was carried out on grafted plants, in pots. Three species were used: ‘Reinette des Capucins’, ‘Jonagold’, and ‘Reinette de Waleffe’, grafted on M9 rootstock. The plants were grown under a plastic tunnel at different times, so that they were all at the same stage at the time of the trial: starting with Reinette de Waleffe, then 15 days later, Reinette des Capucins, then 1 week later, Jonagold.
The plants were labelled with the variety and the method of treatment received before inoculation.
The method of treatment, preparation of the inoculum, inoculation and observations are similar to those described in example 1.
The plants were treated twice, successively, 10 days apart. The day following the second treatment, the last extended leaf ? F1 ? was identified.
Two days after the second treatment, the pathogen (Venturia inaequalis) was inoculated using a dose of 1.5×10^5 conidia/ml, directly in the moist room. Inoculation is followed by a 48 hours incubation in moist room at 18° C., then the plants remained in the boxes with a temperature of 18°±2° C. and a relative humidity of 80±10%.
The study was organised as follows:
The OY2 yeast cell walls correspond to an acqueous suspension at 25 mg/l of the Springcell 8001 product from Biospringer SAS, (Maisons-Alfort), France), with 96% cell walls of dry matter content.
The observations were made on the 21st day after the inoculation of the last 2 treated leaves (F2 and F1) and on the leaf newly formed after treatment (F0) for about 25 leaves per subject.
An observation at 41 days after the treatment gave the following results.
At this time, new leaves had extended: F-1 and F-2, and the disease progressed by natural contamination, without any re-inoculation.

[1] = All varieties, 21st day after inoculation
[2] = All varieties, 41 days after the treatment
[3] = Capucins, 21st day after inoculation
[4] = Capucins, 41 days after the treatment
[5] = Jonagold, 21st day after inoculation
[6] = Jonagold, 41 days after the treatment
[7] = Waleffe, 21st day after inoculation
[8] = Waleffe, 41 days after the treatment

CC(N)CC(=O)O (stereo not drawn) [baba, β-aminobutyric acid]
Efficiency (%) All leaves [1]: 47.2%
Efficiency (%) F0 [1]: 27.0%
Efficiency (%) F1 [1]: 47.1%
Efficiency (%) F2 [1]: 67.6%
Efficiency (%) Leaves treated [1]: 57.4%
Sporulant surface/leaf (%) F0 [1]: 13.0%
Sporulant surface/leaf (%) F1 [1]: 15.4%
Sporulant surface/leaf (%) F2 [1]: 9.6%
Efficiency (%) All leaves [2]: 54.2%
Efficiency (%) New leaves [2]: 40.1%
Efficiency (%) Treated leaves [2]: 68.1%
Sporulant surface/leaf (%) F0 [2]: 31.0%
Sporulant surface/leaf (%) F1 [2]: 26.7%
Sporulant surface/leaf (%) F2 [2]: 10.0%
Sporulant surface/leaf (%) F-1 [2]: 28.2%
Sporulant surface/leaf (%) F-2 [2]: 8.6%
Efficiency (%) All leaves [3]: 60.3%
Efficiency (%) F0 [3]: 45.3%
Efficiency (%) F1 [3]: 59.8%
Efficiency (%) F2 [3]: 75.8%
Efficiency (%) Leaves treated [3]: 67.8%
Sporulant surface/leaf (%) F0 [3]: 4.3%
Sporulant surface/leaf (%) F1 [3]: 8.0%
Sporulant surface/leaf (%) F2 [3]: 4.2%
Efficiency (%) All leaves [4]: 77.1%
Efficiency (%) New leaves [4]: 55.5%
Efficiency (%) Treated leaves [4]: 88.2%
Sporulant surface/leaf (%) F0 [4]: 14.07%
Sporulant surface/leaf (%) F1 [4]: 10.62%
Sporulant surface/leaf (%) F2 [4]: 4.00%
Sporulant surface/leaf (%) F-1 [4]: 9.95%
Sporulant surface/leaf (%) F-2 [4]: 4.00%
Efficiency (%) All leaves [5]: 57.9%
Efficiency (%) F0 [5]: 38.0%
Efficiency (%) F1 [5]: 50.5%
Efficiency (%) F2 [5]: 85.1%
Efficiency (%) Leaves treated [5]: 67.8%
Sporulant surface/leaf (%) F0 [5]: 13.9%
Sporulant surface/leaf (%) F1 [5]: 17.9%
Sporulant surface/leaf (%) F2 [5]: 6.0%
Efficiency (%) All leaves [6]: 57.7%
Efficiency (%) New leaves [6]: 49.0%
Efficiency (%) Treated leaves [6]: 67.8%
Sporulant surface/leaf (%) F0 [6]: 37.79%
Sporulant surface/leaf (%) F1 [6]: 27.57%
Sporulant surface/leaf (%) F2 [6]: 10.57%
Sporulant surface/leaf (%) F-1 [6]: 29.57%
Sporulant surface/leaf (%) F-2 [6]: 3.43%
Efficiency (%) All leaves [7]: 28.6%
Efficiency (%) F0 [7]: 10.3%
Efficiency (%) F1 [7]: 35.2%
Efficiency (%) F2 [7]: 40.3%
Efficiency (%) Leaves treated [7]: 37.8%
Sporulant surface/leaf (%) F0 [7]: 20.9%
Sporulant surface/leaf (%) F1 [7]: 20.4%
Sporulant surface/leaf (%) F2 [7]: 18.6%
Efficiency (%) All leaves [8]: 33.0%
Efficiency (%) New leaves [8]: 24.0%
Efficiency (%) Treated leaves [8]: 44.8%
Sporulant surface/leaf (%) F0 [8]: 41.05%
Sporulant surface/leaf (%) F1 [8]: 42.00%
Sporulant surface/leaf (%) F2 [8]: 15.55%
Sporulant surface/leaf (%) F-1 [8]: 45.16%
Sporulant surface/leaf (%) F-2 [8]: 18.42%

Reference: US8609084B2, “Protection of plants against their pathogenic agents” (Lesaffre et Compagnie, priority 2005, dated 2013)
